Results from patent publication US20240270762A1, “PENICILLIN-BINDING PROTEIN INHIBITORS” (priority 2021, published 2024).
Values after ≈ are worked out from the molar mass of the structure shown.

What was measured:
[1] = test system: N. gonorrhoeae WHO K; assay: Liquid broth MIC in Fastidious broth; details: Neisseria gonorrhoeae, read-out: Minimum Inhibitory Concentration (MIC), N. gonorrhoeae WHO K
[2] = test system: P. aeruginosa CDC-0054; assay: microbe, parasite or virus in culture; format: cell-based; details: Pseudomonas aeruginosa, CDC0054, read-out: Minimum inhibitory concentration, P. aeruginosa CDC-0054
[3] = test system: P. aeruginosa (ΔmexAB-oprM); assay: Broth microdilution MIC in iron-depleted CAMHB (IDM); format: cell-based; details: Pseudomonas aeruginosa; iron-depleted CAMHB (IDM); […]; read-out: Minimum inhibitory concentration, P. aeruginosa ΔmexAB-oprM
[4] = test system: B. humptydooensis ATCC BAA-2767; assay: microbe, parasite or virus in culture; format: cell-based; details: Burkholderia humptydooensis, ATCCBAA2767, read-out: Minimum inhibitory concentration (MIC), B. humptydooensis ATCC BAA-2767
[5] = test system: B. thailandensis ATCC 700388; assay: microbe, parasite or virus in culture; format: cell-based; details: Burkholderia thailandensis, ATCC700388, read-out: Minimum inhibitory concentration (MIC), B. thailandensis ATCC 700388
[6] = test system: N. gonorrhoeae WHO L; assay: Liquid broth MIC in Fastidious broth; details: Neisseria gonorrhoeae, read-out: Minimum Inhibitory Concentration (MIC), N. gonorrhoeae WHO L
[7] = test system: N. gonorrhoeae WHO Q; assay: Liquid broth MIC in Fastidious broth; details: Neisseria gonorrhoeae, read-out: Minimum Inhibitory Concentration (MIC), N. gonorrhoeae WHO Q
[8] = target: T1, PBP3 from Escherichia coli (K-12) (Escherichia coli, UniProt P0AD68); assay: Bocillin-FL fluorescence polarization competition binding, E. coli PBP3
T1 construct: made in house
T1 sequence (P0AD68 1-577): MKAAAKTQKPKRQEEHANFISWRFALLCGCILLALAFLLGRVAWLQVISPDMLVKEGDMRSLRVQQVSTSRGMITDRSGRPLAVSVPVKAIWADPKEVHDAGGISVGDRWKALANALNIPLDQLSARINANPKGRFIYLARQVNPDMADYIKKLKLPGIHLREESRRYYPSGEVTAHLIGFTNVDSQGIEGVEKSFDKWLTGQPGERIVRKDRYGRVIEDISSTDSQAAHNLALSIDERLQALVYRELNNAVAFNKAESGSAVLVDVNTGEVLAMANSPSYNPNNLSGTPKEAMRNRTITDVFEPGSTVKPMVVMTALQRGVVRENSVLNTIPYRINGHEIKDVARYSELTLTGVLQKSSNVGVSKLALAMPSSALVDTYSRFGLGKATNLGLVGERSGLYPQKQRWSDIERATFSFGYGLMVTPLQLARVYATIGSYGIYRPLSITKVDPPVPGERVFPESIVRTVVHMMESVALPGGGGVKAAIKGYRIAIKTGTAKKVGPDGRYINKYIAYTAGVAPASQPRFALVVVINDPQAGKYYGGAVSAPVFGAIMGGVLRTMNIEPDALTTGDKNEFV
Summary of the method: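 Purified PBP was preincubated with inhibitor (E. coli PBP3 1.5 μM, 30 min; P. aeruginosa PBP3 0.75 μM, A. baumannii PBP3 0.2 μM and PBP1a 1 μM, 15 min), then Bocillin-FL (0.1 μM; 0.05 μM for PBP1a) added and FP read up to 60 min. EC50 = 50% loss of bound probe.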

[9] = test system: A. baumannii CDC-0045; assay: microbe, parasite or virus in culture; format: cell-based; details: Acinetobacter baumannii, CDC0045, read-out: MIC, A. baumannii CDC-0045
[10] = test system: P. aeruginosa CDC-0090; assay: microbe, parasite or virus in culture; format: cell-based; details: Pseudomonas aeruginosa, CDC0090, read-out: Minimum inhibitory concentration, P. aeruginosa CDC-0090

| SMILES | MIC [1] [µg/mL] | MIC [2] [µg/mL] | MIC [3] [µg/mL] | MIC [4] [µg/mL] | MIC [5] [µg/mL] | MIC [6] [µg/mL] | MIC [7] [µg/mL] | EC50 [8] [µM] | MIC [9] [µg/mL] | MIC [10] [µg/mL] |
| --- | --- | --- | --- | --- | --- | --- | --- | --- | --- | --- |
| O=C(NCCCN1CCN(C(=O)NC(C(=O)N[C@H]2Cc3ccc(F)c(C(=O)O)c3OB2O)c2cc(F)c(O)c(O)c2Cl)C(=O)C1=O)c1ccncc1 (stereo partly drawn) [Example 205, (3R)-3-(2-(2-chloro-5-fluoro-3,4-dihydroxyphenyl)-2-(4-(3-(isonicotinamido)propyl)-2,3-dioxopiperazine-1-carboxamido)acetamido)-7-fluoro-2-hydroxy-3,4-dihydro-2H-benzo[e][1,2]oxaborinine-8-carboxylic acid] | > 64 | < 1 | < 1 | < 1 | < 1 | > 64 | 16 to 32 (≈ 21.5 to 43 µM) | < 10 | < 1 | < 1 |
| O=C(NCCCN1CCN(C(=O)NC(C(=O)N[C@H]2Cc3ccc(F)c(C(=O)O)c3OB2O)c2cc(F)c(O)c(O)c2Cl)C(=O)C1=O)Nc1cccc(O)c1 (stereo partly drawn) [Example 206, (3R)-3-(2-(2-chloro-5-fluoro-3,4-dihydroxyphenyl)-2-(4-(3-(3-(3-hydroxyphenyl)ureido)propyl)-2,3-dioxopiperazine-1-carboxamido)acetamido)-7-fluoro-2-hydroxy-3,4-dihydro-2H-benzo[e][1,2]oxaborinine-8-carboxylic acid] | > 64 | < 1 | < 1 | < 1 | 2 to 4 (≈ 2.58 to 5.16 µM) | > 64 | 16 to 32 (≈ 20.6 to 41.3 µM) | < 10 | < 1 | < 1 |
| O=C(NCCN1CCN(C(=O)NC(C(=O)N[C@H]2Cc3ccc(F)c(C(=O)O)c3OB2O)c2cc(F)c(O)c(O)c2Cl)C(=O)C1=O)c1ccccc1 (stereo partly drawn) [Example 207, (3R)-3-(2-(4-(2-benzamidoethyl)-2,3-dioxopiperazine-1-carboxamido)-2-(2-chloro-5-fluoro-3,4-dihydroxyphenyl)acetamido)-7-fluoro-2-hydroxy-3,4-dihydro-2H-benzo[e][1,2]oxaborinine-8-carboxylic acid] | > 64 | 2 to 4 (≈ 2.74 to 5.48 µM) | < 1 | < 1 | 8 to 16 (≈ 11 to 21.9 µM) | > 64 | 16 to 32 (≈ 21.9 to 43.8 µM) | < 10 | 2 to 4 (≈ 2.74 to 5.48 µM) | < 1 |
| CN(CCN1CCN(C(=O)N[C@@H](C(=O)N[C@H]2Cc3ccc(F)c(C(=O)O)c3OB2O)c2cc(F)c(O)c(O)c2Cl)C(=O)C1=O)Cc1cncc(O)c1 [Example 208, (R)-3-((R)-2-(2-chloro-5-fluoro-3,4-dihydroxyphenyl)-2-(4-(2-(((5-hydroxypyridin-3-yl)methyl)(methyl)amino)ethyl)-2,3-dioxopiperazine-1-carboxamido)acetamido)-7-fluoro-2-hydroxy-3,4-dihydro-2H-benzo[e][1,2]oxaborinine-8-carboxylic acid] | 16 to 32 (≈ 21.4 to 42.8 µM) | 2 to 4 (≈ 2.68 to 5.36 µM) | < 1 | < 1 | < 1 | > 64 | 16 to 32 (≈ 21.4 to 42.8 µM) | < 10 | < 1 | < 1 |
| CN(CCN1CCN(C(=O)N[C@@H](C(=O)N[C@H]2Cc3ccc(F)c(C(=O)O)c3OB2O)c2cc(F)c(O)c(O)c2Cl)C(=O)C1=O)Cc1ccc(N)nc1 [Example 209, (R)-3-((R)-2-(4-(2-(((6-aminopyridin-3-yl)methyl)(methyl)amino)ethyl)-2,3-dioxopiperazine-1-carboxamido)-2-(2-chloro-5-fluoro-3,4-dihydroxyphenyl)acetamido)-7-fluoro-2-hydroxy-3,4-dihydro-2H-benzo[e][1,2]oxaborinine-8-carboxylic acid] | > 64 | 2 to 4 (≈ 2.68 to 5.36 µM) | < 1 | < 1 | < 1 | > 64 | 16 to 32 (≈ 21.5 to 42.9 µM) | < 10 | < 1 | < 1 |
| O=C(NCCCN1CCN(C(=O)N[C@@H](C(=O)N[C@H]2Cc3ccc(F)c(C(=O)O)c3OB2O)c2cc(F)c(O)c(O)c2Cl)C(=O)C1=O)c1cccnc1 [Example 210, (R)-3-((R)-2-(2-chloro-5-fluoro-3,4-dihydroxyphenyl)-2-(4-(3-(nicotinamido)propyl)-2,3-dioxopiperazine-1-carboxamido)acetamido)-7-fluoro-2-hydroxy-3,4-dihydro-2H-benzo[e][1,2]oxaborinine-8-carboxylic acid] | > 64 | < 1 | < 1 | < 1 | < 1 | > 64 | > 64 | < 10 | < 1 | < 1 |
| O=C(NCCCN1CCN(C(=O)NC(C(=O)N[C@H]2Cc3ccc(F)c(C(=O)O)c3OB2O)c2cc(F)c(O)c(O)c2Cl)C(=O)C1=O)c1nccs1 (stereo partly drawn) [Example 211, (3R)-3-(2-(2-chloro-5-fluoro-3,4-dihydroxyphenyl)-2-(2,3-dioxo-4-(3-(thiazole-2-carboxamido)propyl)piperazine-1-carboxamido)acetamido)-7-fluoro-2-hydroxy-3,4-dihydro-2H-benzo[e][1,2]oxaborinine-8-carboxylic acid] | > 64 | 2 to 4 (≈ 2.66 to 5.33 µM) | < 1 | < 1 | 2 to 4 (≈ 2.66 to 5.33 µM) | > 64 | > 64 | < 10 | < 1 | < 1 |
| O=C(O)c1c(F)ccc2c1OB(O)[C@@H](NC(=O)C(NC(=O)N1CCN(CCCNC(=O)[C@@H]3CCCN3)C(=O)C1=O)c1cc(F)c(O)c(O)c1Cl)C2 (stereo partly drawn) [Example 212, (3R)-3-(2-(2-chloro-5-fluoro-3,4-dihydroxyphenyl)-2-(2,3-dioxo-4-(3-((S)-pyrrolidine-2-carboxamido)propyl)piperazine-1-carboxamido)acetamido)-7-fluoro-2-hydroxy-3,4-dihydro-2H-benzo[e][1,2]oxaborinine-8-carboxylic acid] | > 64 | 8 to 16 (≈ 10.9 to 21.7 µM) | < 1 | < 1 | 2 to 4 (≈ 2.71 to 5.43 µM) | > 64 | > 64 | 10 to 50 | 2 to 4 (≈ 2.71 to 5.43 µM) | < 1 |
| O=C(NCCCN1CCN(C(=O)NC(C(=O)N[C@H]2Cc3ccc(F)c(C(=O)O)c3OB2O)c2cc(F)c(O)c(O)c2Cl)C(=O)C1=O)Nc1cccnc1 (stereo partly drawn) [Example 213, (3R)-3-(2-(2-chloro-5-fluoro-3,4-dihydroxyphenyl)-2-(2,3-dioxo-4-(3-(3-(pyridin-3-yl)ureido)propyl)piperazine-1-carboxamido)acetamido)-7-fluoro-2-hydroxy-3,4-dihydro-2H-benzo[e][1,2]oxaborinine-8-carboxylic acid] | > 64 | 2 to 4 (≈ 2.63 to 5.26 µM) | < 1 | < 1 | 2 to 4 (≈ 2.63 to 5.26 µM) | > 64 | > 64 | < 10 | 2 to 4 (≈ 2.63 to 5.26 µM) | 2 to 4 (≈ 2.63 to 5.26 µM) |
| O=C(NCCN1CCN(C(=O)NC(C(=O)N[C@H]2Cc3ccc(F)c(C(=O)O)c3OB2O)c2cc(F)c(O)c(O)c2Cl)C(=O)C1=O)c1ccc(O)cc1 (stereo partly drawn) [Example 214, (3R)-3-(2-(2-chloro-5-fluoro-3,4-dihydroxyphenyl)-2-(4-(2-(4-hydroxybenzamido)ethyl)-2,3-dioxopiperazine-1-carboxamido)acetamido)-7-fluoro-2-hydroxy-3,4-dihydro-2H-benzo[e][1,2]oxaborinine-8-carboxylic acid] | > 64 | 2 to 4 (≈ 2.68 to 5.36 µM) | < 1 | < 1 | 8 to 16 (≈ 10.7 to 21.5 µM) | > 64 | > 64 | < 10 | 2 to 4 (≈ 2.68 to 5.36 µM) | < 1 |
